Assay results from patent US4010184A, “Thienodiazepines” (Yoshitomi Pharmaceutical Industries, Ltd., priority 1973, dated 1977).

Columns and labels:
[1] = tested on: mice (tail electrical stimulation, absence of squeak); experiment: Analgesic Activity (Electrical Stimulation Method); type: in vivo, mouse; conditions: male mice, intraperitoneal, tail stimulated 5 s, 25 volts, 40 msec., 1 cps, determined graphically; for ED50: Mus musculus, ip
Protocol: 1. Analgesic Activity (Electrical Stimulation Method)
The test was performed essentially in accordance with the methods described in "Journal of the Pharmaceutical Society of Japan," vol 73, p. 212 ff. (1953) and "Folia Pharmacologica Japonica," vol. 65, p. 378 ff. (1969).
Test compound was administered intraperitoneally to groups consisting 10 male mice. The tail of the mouse was electrically stimulated for 5 seconds with interrupted direct current (25 volts, 40 msec., 1 cps.). When no squeak was observed during the electrical stimulation, analgesic effect was evaluated to be positive.
The ED50 (50% effective dose) was determined graphically.

[2] = tested on: mice (pentylenetetrazole lethality); experiment: Anticonvulsant Activity (pentylenetetrazole-induced death); type: in vivo, mouse; conditions: intraperitoneal; for Anticonvulsant Activity %-Inhibition: 15 min before pentylenetetrazole 150 mg/kg s.c., deaths within 3 hours, at dose equal to analgesic ED50: 40 (1, 2), 30 (3), 28 (4), 200 (5), 170 (6), 200 (7) mg/kg; for A/B (A: ED50 value for analgesic activity; B: ED50 value for anticonvulsant activity): ratio of ED50 values
Protocol: 2. Anticonvulsant Activity
Pentylenetetrazole (150 mg/kg) was administered subcutaneously to groups consisting 6 mice 15 minutes after the intraperitoneal administration of the test compound. The number of dead mice were counted within 3 hours after the administration of pentylenetetrazole. On one hand, the %-inhibition at the dose equal to the ED50 dose for analgesic activity was determined, and on the other, the ED50, the dose required to suppress the lethal rate to 50%, was determined graphically.

Row | Compound | ED50 [1] | Anticonvulsant Activity %-Inhibition [2] | A/B (A: ED50 value for analgesic activity; B: ED50 value for anticonvulsant activity) [2] | Analgesic Activity ED50 [1]
1 | Cc1c(N(C)C)c(=O)n(-c2ccccc2)n1C [Aminopyrine, reference compound] | 100 mg/kg |  |  | 
2 | CCc1cc2c(s1)N(C(=O)N(C)C)CCN=C2c1ccccc1Cl.Cl [Test Compound 1, 5-o-chlorophenyl-7-ethyl-1-dimethylcarbamoyl-2,3-dihydro-1H-thieno[2,3-e][1,4]diazepine hydrochloride] | 40 mg/kg | 0% | < 0.4 | 
3 | CCc1cc2c(s1)N(C(=O)N(C)C)CCN=C2c1ccc(Cl)cc1.Cl [Test Compound 2, 5-p-chlorophenyl-7-ethyl-1-dimethylcarbamoyl-2,3-dihydro-1H-thieno[2,3-e][1,4]diazepine hydrochloride] | 40 mg/kg | 0% | < 0.4 | 
4 | 5-o-chlorophenyl-7-ethyl-1-(4-methyl-1-piperazinylcarbonyl)-2,3-dihydro-1H-thieno[2,3-e][1,4]diazepine dihydrochloride 1/2 -hydrate [Example 4] |  |  |  | 28 mg/kg
5 | 5-o-chlorophenyl-7-ethyl-1-piperidinocarbonyl-2,3-dihydro-1H-thieno[2,3-e][1,4]diazepine hydrochloride [Example 3] |  | 0% | < 0.4 | 
6 | 5-(3,4-dichlorophenyl)-7-ethyl-1-dimethylcarbamoyl-2,3-dihydro-1H-thieno[2,3-e][1,4]diazepine hydrochloride [Example 6] |  |  |  | 170 mg/kg
7 | 7-ethyl-1-dimethylcarbamoyl-5-phenyl-2,3-dihydro-1H-thieno[2,3-e][1,4]diazepine hydrochloric [Example 5] |  |  |  | > 200 mg/kg
8 | CCc1cc2c(s1)N(C(=O)NC)CCN=C2c1ccccc1Cl [Test Compound 7, 5-o-chlorophenyl-7-ethyl-1-methylcarbamoyl-2,3-dihydro-1H-thieno[2,3-e][1,4]diazepine, reference compound] | 200 mg/kg | 100% | 2 - 4 | 
